{"source": "patent US20100221709A1", "about": "“METHODS FOR IDENTIFYING AGENTS THAT MODULATE APOPTOSIS IN CELLS THAT OVER-EXPRESS A BCL-2 FAMILY MEMBER PROTEIN” (priority 2005, published 2010)", "key": {"[1]": {"target": "T1, recombinant Bcl-2 (Bcl-2ΔC22) (Homo sapiens, UniProt P10415)", "T1 construct": "poly-His (N); made in house", "T1 sequence (P10415 1-217 limits assumed, stated change not applied)": "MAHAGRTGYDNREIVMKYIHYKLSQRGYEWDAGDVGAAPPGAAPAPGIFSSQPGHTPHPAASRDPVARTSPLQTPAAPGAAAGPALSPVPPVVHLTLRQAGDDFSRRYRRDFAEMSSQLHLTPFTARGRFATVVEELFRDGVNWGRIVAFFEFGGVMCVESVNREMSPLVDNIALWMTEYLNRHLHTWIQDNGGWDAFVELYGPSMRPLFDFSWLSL", "test": "Antimycin A3 fluorescence binding and competitive displacement assay", "settings": "antimycin A3 2 μM, competitor 2 μM, Bcl-2 3 μM", "description": "In this assay, 0 to 5 μM antimycin A3 (Sigma Chemical Co., St. Louis, Mo.) was added to a physiological buffer (50 mM Tris-HCl pH 8.0, 0.2 M NaCl, 2 mM EDTA, 0.5% v/v glycerol) containing recombinant Bcl-2 or Bcl-xL protein under conditions that permitted antimycin A3 to bind to the BH3-binding domain of Bcl-2 or Bcl-xL, (22.5° C. on a Hitachi F-2500 fluorescence spectrofluorimeter equipped with a thermostatted cell holder). […] The excitation wavelength was 335 nm, and the maximum emission wavelength for antimycin A3 was 428 nm with a slit width of 10 nm. The samples were mixed in a quartz cuvette and checked for inner filter effect over the range of antimycin A3 for this study. […]\nRecombinant human Bcl-2ΔC22 (a recombinant human […] lacking the C-terminal 22-amino acid residue membrane anchor sequence) and mouse Bcl-xLΔC20 (a murine Bcl-xL lacking the C terminal 20-amino acid residue membrane anchor sequence) fused with poly-His at the N-terminus were chromatographically purified to homogeneity. The concentrations of antimycin A3 and stock solutions of recombinant proteins were quantitated using an extinction coefficient of 7.24/mM/cm at 320 nm and by Bradford assay, respectively. […] For peptide displacement experiments, a solution of 2 μM antimycin A3 and 3 μM Bcl-2 was allowed to reach binding equilibrium at 4° C. prior to fluorescence measurements. […]"}, "Cellular O2 consumption": {"test": "Cellular O2 consumption", "assay_type": "cell-based", "settings": "compared to antimycin A3"}, "[2]": {"tested_on": "mitochondria from cells over-expressing Bcl-xL (TABX2S cells)", "test": "JC-1 staining of isolated mitochondrial fractions", "assay_type": "biochemical, murine", "settings": "2 μg/ml", "description": "Briefly, at 15 and 30 minutes, 5×10^5 cells were washed, trypsinized and resuspended in 1 ml of growth media. Each sample was stained with 10 μg/ml of JC-1 prepared in DMSO. After 10 minutes of incubation at 37° C., cells were transferred to ice and analysis was performed using a FACScan flow cytometer (Becton Dickinson). The excitation wavelength was 488 nm whereas measurement was performed at 520 and 585 nm for green and red fluorescence, respectively. Green and red fluorescence were measured on FL1 and FL2 channels, respectively. A minimum of 10,000 cells per sample were analyzed. Comparisons were made based on the results of at least three experiments.\nIsolated mitochondria were loaded with JC-1 prior to treatment, and mitochondrial labeling was determined using FACS. […] Antimycin A-treated mitochondria with high levels of Bcl-xL had lower levels of JC-1 staining than parallel samples treated with CCCP. Uncoupled mitochondria still retain a significant Donnan potential because of trapped anionic species and it is likely that antimycin-induced PT and/or swelling of mitochondria led to a further reduction of this residual potential.\nAs observed for the parent compound, antimycin A3, mitochondria with normal levels of Bcl-xL expression were not affected by the 2-methoxy analog."}, "[3]": {"tested_on": "TABX2S cells (over-expressing Bcl-xL)", "test": "in vitro", "text": "(§1) Briefly, a DNA fragment encoding the full-length mouse Bcl-xL cDNA was isolated from the plasmid pBS-BCL-xL (Tzung et al., Am. J. Path. 150:1985-1995 (1997), incorporated herein by reference in its entirety) by digestion with the restriction endonuclease EcoRI. This EcoRI fragment was cloned into the EcoRI site of the mammalian expression vector pSFFV (Fuhlbrigge et al., Proc. Nat. Acad. Sci. USA 85:5649-5653 (1988)) in both sense and antisense orientations, to form expression plasmids pSFFV-Bc/-xL-WT(sense) or pSFFV-Bc/-xL(antisense), respectively. The tumorigenic murine hepatocyte cell line TAMH was transfected by lipofection (Lipofectamine, Life Technologies, Rockville, Md., according to the manufacturer's recommendations) with the plasmids pSFFV-neo (the control), pSFFV-Bc/-xL-WT(sense) or pSFFV-Bc/-xL(antisense). Characterization of and culture conditions for the cell lines have been previously published (Wu et al., Proc. Nat. Acad. Sci. USA 91:674-78 (1994); Wu et al., Cancer Res. 54:5964-5973 (1994)). Transfectants were selected for the acquisition of neomycin resistance by growing cells in the presence of 750 μg/ml of G418. Bulk transfectants were cloned by limiting dilution and individual clones were screened by immunoblot analysis to determine the level of Bcl-xL, protein expression as described below.\n(§2) Selected transfectants were then tested for whole cell sensitivity to several apoptotic agents. Transfected cells were cultured to reach approximately 80% confluency prior to plating an equal number of cells from selected clones on 12-well tissue culture plates. The transplanted cells were treated with the following apoptotic agents: 5 μM doxorubicin for 48 hours; 5 μM cisplatin for 48 hours; or with 200 U/ml tumor necrosis factor (TNF) plus 1 μg/ml actinomycin D for 18 hours. Cell viability was determined by trypan blue dye exclusion. The percentage of viable cells was calculated by the number of viable cells (treated with a particular apoptogenic agent) divided by the number in the control group (untreated).\n(§3) TABX2S cells and TABX1A cells were also examined for the effects of various mitochondrial inhibitors. […] Azide was diluted from an aqueous stock solution."}, "Bcl-xL(ΔC) WT": {"target": "T2, Bcl-xL(ΔC) WT (Homo sapiens, UniProt Q07817)", "T2 construct": "inferred from pET22b(+) NdeI/XhoI cloning and nickel-NTA purification) (C); made in house; host or cells: Escherichia coli BL21(DE3) carrying pUB520", "T2 sequence (Q07817 1-211 limits assumed, stated change not applied)": "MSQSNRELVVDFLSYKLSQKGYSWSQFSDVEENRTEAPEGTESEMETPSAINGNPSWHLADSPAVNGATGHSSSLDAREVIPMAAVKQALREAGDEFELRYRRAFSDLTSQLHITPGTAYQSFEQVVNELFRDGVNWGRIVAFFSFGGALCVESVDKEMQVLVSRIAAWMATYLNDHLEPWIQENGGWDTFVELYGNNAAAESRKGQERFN", "test": "Pore assay, calcein release from large unilamellar vesicles", "assay_type": "biochemical", "description": "Large unilamellar vesicles composed of 60% dioleoylphophatidylcholine and 40% dioleoylphosphatidylglycerol were prepared by the extrusion method of Mayer et al., supra. Lipid stocks, in chloroform, were mixed and dried under a stream of nitrogen gas. The lipid was resuspended by vortexing for 30 min in a solution of 40 mM calcein (Molecular Probes), 25 mM KCl, and 10 mM KOAc, pH 5.0. After 10 freeze-thaw cycles, the lipid suspension was extruded through two 0.1 μm pore diameter Nucleopore filters. Non-entrapped dye was removed by passage over a Sephadex G10 column (Amersham Biosciences). Lipid concentration was measured using the ammonium ferrothiocyanate method (Stewart, Anal. Biochem. 104:10-14, 1980).\nFor pore assays, recombinant truncated Bcl-2 family protein or mutant protein (Bcl-xL(ΔC)) (500 nM) was added to large unilamellar vesicles (60 μM lipid concentration) in 100 mM KCl, 10 mM KOAc, pH 5.0, and fluorescence measured (490 nm excitation, 520 nm emission) with a Fluoromax-3 spectrophotometer. Peptides of the BH3 domain were incubated with the Bcl-xL(ΔC) 5 min prior to mixing with liposomes. AA1 was added to liposomes 1 min before adding the Bcl-xL(ΔC) protein. Samples for kinetic assays were analyzed in a thermostatted cuvette at 37° C. with constant stirring. Dose responses were measured in black quartz microplates (Hellma) at room temperature. Calcein release was expressed as percentage of maximum release with detergent lysis (0.1% Triton X-100)."}, "[4]": {"test": "Cell viability by trypan blue dye exclusion", "settings": "mouse", "text": "as §1\nas §2, with “(untreated). […]” for “(untreated).”"}, "in vitro": {"test": "in vitro", "settings": "mouse", "text": "as §1, §2, §3"}, "[5]": {"tested_on": "myeloma cell lines (RPMI-8226, U266, NCI-H929)", "assay_type": "cell-based, human", "description": "Cell survival was assayed by exclusion of propidium iodide (PI) (10 mg/ml) by unfixed cells. Annexin V-FITC (Pharmingen) or 3,3′-dihexyloxacarbocyanine iodide (DiOC6(3)) (Molecular Probes) staining was analyzed together with PI to discriminate early apoptotic cells. Apoptotic cells were also measured as sub-G1 events among ethanol-fixed cells stained with […] PI. All cell samples were analyzed using a benchtop FACSCalibur® (Becton Dickinson, San Jose, Calif.) flow cytometer. Flow data were analyzed using MultiCycle AV software (Phoenix Flow Systems). For intracellular pH measurements, cell pellets were washed once and resuspended in 2 ml of HEPES-buffered medium (no phenol red and no serum). Carboxy-SNARF®-1 acetoxymethyl (AM) ester (Molecular Probes, 1 mM stock in DMSO, stored at −20° C.), a long wavelength fluorescent pH indicator, was added to a final concentration of 10 μM, and the cells were incubated for 30 min at 37° C. Following incubation with SNARF®-1 AM, cells were sedimented and the pellets were held on ice. Immediately before analysis, pellets were resuspended in Earle's balanced salt solution (experimental buffer) or high-[K^+] buffer containing nigericin (calibration samples)."}}, "note": "Like-named read-outs stand apart in the source and are kept apart here."}
{"compound": "CCCC[C@H]1C(=O)OC(C)C(NC(=O)c2cccc(NC=O)c2OC)C(=O)O[C@@H](C)C1OC(=O)CC(C)C", "note": "(some centres unmarked) [2-methoxy antimycin A3, antimycin A3 methyl ether]", "values": [{"measurement": "displacement of antimycin A3 from Bcl-2 (antimycin A3 fluorescence)", "setting": "[1]", "result": "decreased exponentially"}, {"measurement": "effect on cellular O2 consumption", "setting": "Cellular O2 consumption", "result": "negligible effect"}, {"measurement": "mitochondrial depolarization (JC-1)", "setting": "[2]", "result": "strongly depolarized"}, {"measurement": "cytotoxicity for cells that over-express Bcl-xL versus control cells", "setting": "[3]; TABX2S vs TAMH.neo and TABX1A", "result": "selective cytotoxicity"}]}
{"compound": "CC(C)C(C(=O)O)N1C(=O)/C(=C\\c2ccc(Br)cc2)SC1=S", "note": "(centres unmarked) [BH3I-1]", "values": [{"measurement": "effect on Bcl-xL pore-forming activity (FIG. 3A)", "setting": "Bcl-xL(ΔC) WT", "result": "no effect"}]}
{"compound": "COc1cccc2c1C(=O)c1c(O)c3c(c(O)c1C2=O)C[C@@](O)(C(=O)CO)C[C@@H]3O[C@H]1C[C@H](N)[C@H](O)[C@H](C)O1", "note": "[doxorubicin]", "values": [{"measurement": "viability at 48 h, 5 µM", "setting": "[4]", "result": 50, "unit": "%"}, {"measurement": "viability at 48 h, 5 µM", "setting": "[4]; TABX1A cells (TAMH hepatocyte line with Bcl-xL antisense)", "result": 20, "unit": "%"}, {"measurement": "viability at 5 µM", "setting": "in vitro", "result": 88, "unit": "%"}]}
{"compound": "CC[C@H]1/C=C/C=C/C[C@@H](C)[C@H](O)[C@@](C)(O)C(=O)[C@@H](C)[C@H](O)[C@@H](C)C(=O)[C@@H](C)[C@H](O)[C@@H](C)/C=C/C(=O)O[C@@H]2[C@H](C)[C@H](CC1)O[C@]1(CC[C@H](C)[C@H](C[C@@H](C)O)O1)[C@H]2C", "note": "[oligomycin]", "values": [{"measurement": "difference in sensitivity of TABX2S and TABX1A cell lines", "setting": "[3]", "result": "no significant differences"}, {"measurement": "cell killing", "setting": "[5]; 2-10 mg/ml", "result": "Only H929 cells were killed"}]}
{"compound": "CCCCC1C(=O)OC(C)C(NC(=O)c2cccc(NC=O)c2OCC(=O)c2ccccc2)C(=O)OC(C)C1OC(=O)CC(C)C", "note": "(centres unmarked) [phenacyl ether antimycin A3]", "values": [{"measurement": "displacement of antimycin A3 from Bcl-2 (antimycin A3 fluorescence)", "setting": "[1]", "result": "did not displace"}]}
{"compound": "C=C(C)[C@H]1Cc2c(ccc3c2O[C@@H]2COc4cc(OC)c(OC)cc4[C@@H]2C3=O)O1", "note": "[rotenone]", "values": [{"measurement": "difference in sensitivity of TABX2S and TABX1A cell lines", "setting": "[3]", "result": "no significant differences"}, {"measurement": "cell killing", "setting": "[5]; 0.5-2.5 mg/ml", "result": "none of the myeloma cell lines were killed"}]}
{"compound": "CC(C)[C@@H]1NC(=O)[C@H](C)OC(=O)[C@@H](C(C)C)NC(=O)[C@@H](C(C)C)OC(=O)[C@H](C(C)C)NC(=O)[C@H](C)OC(=O)[C@@H](C(C)C)NC(=O)[C@@H](C(C)C)OC(=O)[C@H](C(C)C)NC(=O)[C@H](C)OC(=O)[C@@H](C(C)C)NC(=O)[C@@H](C(C)C)OC1=O", "note": "[valinomycin]", "values": [{"measurement": "difference in sensitivity of TABX2S and TABX1A cell lines", "setting": "[3]", "result": "no significant differences"}]}
